Measured values reported in the NIST ThermoML archive (doi:10.1021/je0302304).

Assay: refractive index (Na D-line) (dimensionless); xn = mol fraction of the nth substance listed
Conditions: 101.32 kPa, Liquid, Standard Abbe refractometry

COCCOCCOC [2,5,8-trioxanonane] + CCO
refractive index
Conditions	288.15 K	298.15 K	308.15 K	318.15 K
x1 = 0.0045	1.3636	1.3596	1.3555	1.3514
x1 = 0.0085	1.3641	1.3601	1.356	1.3518
x1 = 0.0125	1.3645	1.3605	1.3565	1.3523
x1 = 0.0165	1.365	1.361	1.3569	1.3528
x1 = 0.0205	1.3655	1.3615	1.3574	1.3532
x1 = 0.0305	1.3666	1.3626	1.3585	1.3543
x1 = 0.05	1.3687	1.3647	1.3606	1.3564
x1 = 0.1	1.3737	1.3696	1.3654	1.3612
x1 = 0.15	1.378	1.3739	1.3697	1.3655
x1 = 0.2	1.3817	1.3776	1.3734	1.3692
x1 = 0.25	1.3851	1.381	1.3767	1.3725
x1 = 0.3	1.3881	1.3839	1.3797	1.3754
x1 = 0.35	1.3907	1.3866	1.3823	1.378
x1 = 0.4	1.3931	1.3889	1.3846	1.3803
x1 = 0.45	1.3953	1.3911	1.3867	1.3824
x1 = 0.4999	1.3973	1.3931	1.3887	1.3843
x1 = 0.55	1.399	1.3948	1.3904	1.3861
x1 = 0.5999	1.4007	1.3965	1.392	1.3877
x1 = 0.65	1.4022	1.398	1.3935	1.3892
x1 = 0.6999	1.4036	1.3993	1.3949	1.3905
x1 = 0.7499	1.4049	1.4006	1.3961	1.3917
x1 = 0.7999	1.406	1.4018	1.3973	1.3929
x1 = 0.8499	1.4072	1.4029	1.3984	1.394
x1 = 0.8998	1.4082	1.4039	1.3994	1.395
x1 = 0.9498	1.4092	1.4049	1.4003	1.3959
x1 = 1	1.4101	1.4058	1.4012	1.3968

COCCOC [1,2-dimethoxyethane] + CCO
refractive index
Conditions	288.15 K	298.15 K	308.15 K	318.15 K
x1 = 0.0045	1.3633	1.3592	1.3552	1.351
x1 = 0.0086	1.3634	1.3593	1.3553	1.3511
x1 = 0.0125	1.3635	1.3594	1.3554	1.3512
x1 = 0.0165	1.3636	1.3596	1.3555	1.3513
x1 = 0.0205	1.3638	1.3597	1.3557	1.3515
x1 = 0.0305	1.3642	1.3601	1.356	1.3518
x1 = 0.05	1.3649	1.3608	1.3566	1.3524
x1 = 0.1	1.3666	1.3624	1.3582	1.3539
x1 = 0.15	1.3681	1.3639	1.3596	1.3552
x1 = 0.2	1.3695	1.3652	1.3609	1.3565
x1 = 0.25	1.3709	1.3664	1.3621	1.3576
x1 = 0.3	1.3721	1.3676	1.3631	1.3586
x1 = 0.35	1.3732	1.3686	1.3641	1.3596
x1 = 0.4	1.3742	1.3696	1.3651	1.3605
x1 = 0.45	1.3751	1.3705	1.3659	1.3613
x1 = 0.5	1.376	1.3714	1.3667	1.362
x1 = 0.55	1.3768	1.3722	1.3675	1.3628
x1 = 0.6	1.3776	1.3729	1.3682	1.3634
x1 = 0.6499	1.3783	1.3736	1.3688	1.364
x1 = 0.7	1.379	1.3742	1.3694	1.3646
x1 = 0.7499	1.3796	1.3748	1.37	1.3652
x1 = 0.7999	1.3802	1.3754	1.3705	1.3657
x1 = 0.85	1.3808	1.3759	1.371	1.3661
x1 = 0.9	1.3813	1.3764	1.3715	1.3666
x1 = 0.9499	1.3818	1.3768	1.3719	1.3669
x1 = 1	1.3824	1.3772	1.3722	1.3672

COCCOCCOCCOC [2,5,8,11-tetraoxadodecane] + CCO
refractive index
Conditions	288.15 K	298.15 K	308.15 K	318.15 K
x1 = 0.0045	1.3641	1.36	1.3559	1.3517
x1 = 0.0085	1.3648	1.3608	1.3567	1.3525
x1 = 0.0125	1.3656	1.3616	1.3575	1.3533
x1 = 0.0165	1.3664	1.3624	1.3583	1.3541
x1 = 0.0205	1.3672	1.3632	1.359	1.3548
x1 = 0.0305	1.3691	1.365	1.3609	1.3567
x1 = 0.05	1.3724	1.3684	1.3644	1.3602
x1 = 0.1	1.3799	1.376	1.372	1.3679
x1 = 0.15	1.3862	1.3823	1.3782	1.3741
x1 = 0.2	1.3915	1.3875	1.3834	1.3794
x1 = 0.25	1.396	1.3919	1.3879	1.3839
x1 = 0.3	1.3998	1.3958	1.3917	1.3877
x1 = 0.35	1.4032	1.3991	1.395	1.391
x1 = 0.4	1.4061	1.402	1.3979	1.3939
x1 = 0.4499	1.4087	1.4046	1.4005	1.3965
x1 = 0.5	1.411	1.4069	1.4028	1.3988
x1 = 0.55	1.4131	1.409	1.4049	1.4008
x1 = 0.6	1.4149	1.4108	1.4067	1.4026
x1 = 0.65	1.4166	1.4125	1.4084	1.4043
x1 = 0.7	1.4181	1.414	1.4099	1.4058
x1 = 0.75	1.4195	1.4154	1.4113	1.4072
x1 = 0.7999	1.4208	1.4167	1.4126	1.4084
x1 = 0.8499	1.422	1.4179	1.4137	1.4096
x1 = 0.8998	1.4231	1.4189	1.4148	1.4106
x1 = 0.9498	1.4241	1.4199	1.4158	1.4116
x1 = 1	1.425	1.4209	1.4167	1.4125
